Experimental data published in patent publication US12275731B2, “Azaindole inhibitors of wild-type and mutant forms of LRRK2” (DANA-FARBER CANCER INSTITUTE, INC., priority 2018, dated 2025).

Tests used:
Assay in all cases: KinomeScan profiling
Type in all cases: binding
[1] = biological target: T1, ABL1-nonphosphorylated (Homo sapiens, UniProt P00519); details: read-out: % control
T1 construct: purchased KinomeScan®
Outline: (§1)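 Normalised RLU (% control; DMSO 100%, positive control 0%) was measured for compounds dosed at 1 μM over 468 kinases, active cut-off <35%.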

[2] = biological target: T2, AKT1 (Homo sapiens, UniProt P31749); details: AKT1, 1 μM; read-out: % control
T2 construct: purchased KinomeScan®
Outline: as §1

[3] = biological target: EGFR(L747-S752del, P753S) (Homo sapiens, UniProt P00533, DEL747-752/P753S); details: read-out: % control
Outline: as §1

[4] = biological target: FYN (Homo sapiens, UniProt P06241); details: read-out: % control
Sequence of FYN (P06241 whole entry): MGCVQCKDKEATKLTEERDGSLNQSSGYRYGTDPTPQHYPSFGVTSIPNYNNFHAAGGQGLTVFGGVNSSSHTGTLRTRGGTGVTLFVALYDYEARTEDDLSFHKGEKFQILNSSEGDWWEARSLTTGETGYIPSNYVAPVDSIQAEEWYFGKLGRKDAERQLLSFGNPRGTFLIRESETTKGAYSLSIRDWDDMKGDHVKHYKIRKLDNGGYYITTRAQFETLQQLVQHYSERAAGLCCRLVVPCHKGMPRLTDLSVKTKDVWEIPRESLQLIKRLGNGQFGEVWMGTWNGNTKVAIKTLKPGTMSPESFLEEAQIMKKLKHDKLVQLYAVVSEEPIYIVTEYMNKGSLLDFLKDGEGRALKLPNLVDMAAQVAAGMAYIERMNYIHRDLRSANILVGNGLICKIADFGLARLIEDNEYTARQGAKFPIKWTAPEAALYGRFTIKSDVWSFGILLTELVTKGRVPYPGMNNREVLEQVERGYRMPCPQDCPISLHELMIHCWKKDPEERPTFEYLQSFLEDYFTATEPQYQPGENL
Outline: as §1

[5] = biological target: T3, KIT(D816H) (Homo sapiens, UniProt P10721, D816H); details: read-out: % control
T3 construct: purchased KinomeScan®
T3 sequence (P10721 26-976 D816H): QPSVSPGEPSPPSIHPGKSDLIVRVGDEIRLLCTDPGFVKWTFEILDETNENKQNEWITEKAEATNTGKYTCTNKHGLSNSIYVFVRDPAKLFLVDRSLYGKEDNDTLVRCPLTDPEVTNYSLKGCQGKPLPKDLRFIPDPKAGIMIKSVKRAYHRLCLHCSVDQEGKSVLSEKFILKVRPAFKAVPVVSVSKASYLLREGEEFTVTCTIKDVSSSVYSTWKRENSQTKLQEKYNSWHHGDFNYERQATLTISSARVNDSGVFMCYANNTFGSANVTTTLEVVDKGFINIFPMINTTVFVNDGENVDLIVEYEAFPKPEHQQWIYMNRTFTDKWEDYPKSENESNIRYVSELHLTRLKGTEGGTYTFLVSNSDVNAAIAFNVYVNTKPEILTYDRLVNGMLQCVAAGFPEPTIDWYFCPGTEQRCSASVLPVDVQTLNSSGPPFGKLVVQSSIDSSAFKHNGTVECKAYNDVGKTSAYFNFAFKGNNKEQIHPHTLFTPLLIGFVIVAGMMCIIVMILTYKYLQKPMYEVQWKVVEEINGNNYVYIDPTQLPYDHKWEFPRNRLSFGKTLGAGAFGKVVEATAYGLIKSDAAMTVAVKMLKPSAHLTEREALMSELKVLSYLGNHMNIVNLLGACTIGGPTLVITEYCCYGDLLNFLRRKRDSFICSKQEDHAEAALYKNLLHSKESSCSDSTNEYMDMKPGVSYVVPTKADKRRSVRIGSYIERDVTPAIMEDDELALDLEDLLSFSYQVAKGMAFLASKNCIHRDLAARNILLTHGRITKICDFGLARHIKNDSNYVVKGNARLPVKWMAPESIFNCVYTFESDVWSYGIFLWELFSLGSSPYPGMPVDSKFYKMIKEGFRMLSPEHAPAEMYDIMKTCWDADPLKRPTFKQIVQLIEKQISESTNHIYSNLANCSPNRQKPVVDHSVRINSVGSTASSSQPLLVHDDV
Outline: as §1

[6] = biological target: T4, KIT(D816V) (Homo sapiens, UniProt P10721, D816V); details: read-out: % control
T4 construct: purchased KinomeScan®
T4 sequence (P10721 26-976 D816V): as the sequence (P10721 26-976 D816H) above, with H791V counted along it
Outline: as §1

[7] = biological target: T5, LKB1 (Homo sapiens, UniProt Q15831); details: LKB1, 1 μM; read-out: % control
T5 sequence (Q15831 1-433): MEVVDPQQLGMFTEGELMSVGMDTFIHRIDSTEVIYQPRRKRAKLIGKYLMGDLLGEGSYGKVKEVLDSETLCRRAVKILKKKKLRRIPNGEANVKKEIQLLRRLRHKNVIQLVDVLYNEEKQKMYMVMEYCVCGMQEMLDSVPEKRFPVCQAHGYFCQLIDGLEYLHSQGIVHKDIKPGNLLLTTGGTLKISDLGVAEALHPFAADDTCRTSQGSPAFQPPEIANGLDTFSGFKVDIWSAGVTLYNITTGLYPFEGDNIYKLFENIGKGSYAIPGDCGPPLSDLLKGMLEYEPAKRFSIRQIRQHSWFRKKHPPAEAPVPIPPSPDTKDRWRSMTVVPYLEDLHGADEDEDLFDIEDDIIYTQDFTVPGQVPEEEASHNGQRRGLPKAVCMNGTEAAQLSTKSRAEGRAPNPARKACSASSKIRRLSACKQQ
Outline: as §1

[8] = biological target: MET(Y1235D) (Homo sapiens, UniProt P08581, Y1235D); details: read-out: % control
Sequence of MET(Y1235D) (P08581 25-1390 Y1235D): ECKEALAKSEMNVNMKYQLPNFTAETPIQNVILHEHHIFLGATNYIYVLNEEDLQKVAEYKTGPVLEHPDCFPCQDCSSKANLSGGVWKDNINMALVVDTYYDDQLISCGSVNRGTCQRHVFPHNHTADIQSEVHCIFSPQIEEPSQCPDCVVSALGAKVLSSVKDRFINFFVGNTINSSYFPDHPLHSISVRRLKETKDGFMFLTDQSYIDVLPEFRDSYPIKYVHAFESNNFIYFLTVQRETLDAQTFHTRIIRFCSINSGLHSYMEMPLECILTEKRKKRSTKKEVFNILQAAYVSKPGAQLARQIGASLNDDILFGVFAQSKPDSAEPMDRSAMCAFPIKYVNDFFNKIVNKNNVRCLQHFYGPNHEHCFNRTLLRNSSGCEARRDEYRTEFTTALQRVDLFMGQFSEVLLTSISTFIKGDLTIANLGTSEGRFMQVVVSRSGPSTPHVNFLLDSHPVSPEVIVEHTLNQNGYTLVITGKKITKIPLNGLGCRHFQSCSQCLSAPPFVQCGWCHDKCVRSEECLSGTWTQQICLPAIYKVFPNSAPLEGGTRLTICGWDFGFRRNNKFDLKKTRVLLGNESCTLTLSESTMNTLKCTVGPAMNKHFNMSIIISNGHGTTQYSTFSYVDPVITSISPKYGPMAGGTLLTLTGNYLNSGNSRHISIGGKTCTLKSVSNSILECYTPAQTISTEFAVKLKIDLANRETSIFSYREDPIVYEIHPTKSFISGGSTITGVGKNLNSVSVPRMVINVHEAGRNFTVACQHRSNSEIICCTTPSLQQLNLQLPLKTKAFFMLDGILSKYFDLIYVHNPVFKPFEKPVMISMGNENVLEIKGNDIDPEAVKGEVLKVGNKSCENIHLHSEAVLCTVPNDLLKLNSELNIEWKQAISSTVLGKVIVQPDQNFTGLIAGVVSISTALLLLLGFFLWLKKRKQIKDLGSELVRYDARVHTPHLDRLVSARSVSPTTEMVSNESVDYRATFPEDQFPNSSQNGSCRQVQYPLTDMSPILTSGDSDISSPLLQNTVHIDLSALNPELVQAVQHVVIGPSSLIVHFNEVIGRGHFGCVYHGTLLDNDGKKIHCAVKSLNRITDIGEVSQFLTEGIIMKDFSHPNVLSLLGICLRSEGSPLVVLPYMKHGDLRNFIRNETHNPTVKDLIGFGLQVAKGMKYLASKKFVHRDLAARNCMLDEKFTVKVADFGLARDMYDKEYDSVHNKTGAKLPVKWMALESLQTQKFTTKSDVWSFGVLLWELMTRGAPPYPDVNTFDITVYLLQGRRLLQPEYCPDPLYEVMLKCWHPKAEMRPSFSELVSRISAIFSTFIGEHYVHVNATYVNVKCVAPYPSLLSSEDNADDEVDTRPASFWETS
Outline: as §1

[9] = biological target: PAK4 (Homo sapiens, UniProt O96013); details: PAK4, 1 μM; read-out: % control
Sequence of PAK4 (O96013 whole entry): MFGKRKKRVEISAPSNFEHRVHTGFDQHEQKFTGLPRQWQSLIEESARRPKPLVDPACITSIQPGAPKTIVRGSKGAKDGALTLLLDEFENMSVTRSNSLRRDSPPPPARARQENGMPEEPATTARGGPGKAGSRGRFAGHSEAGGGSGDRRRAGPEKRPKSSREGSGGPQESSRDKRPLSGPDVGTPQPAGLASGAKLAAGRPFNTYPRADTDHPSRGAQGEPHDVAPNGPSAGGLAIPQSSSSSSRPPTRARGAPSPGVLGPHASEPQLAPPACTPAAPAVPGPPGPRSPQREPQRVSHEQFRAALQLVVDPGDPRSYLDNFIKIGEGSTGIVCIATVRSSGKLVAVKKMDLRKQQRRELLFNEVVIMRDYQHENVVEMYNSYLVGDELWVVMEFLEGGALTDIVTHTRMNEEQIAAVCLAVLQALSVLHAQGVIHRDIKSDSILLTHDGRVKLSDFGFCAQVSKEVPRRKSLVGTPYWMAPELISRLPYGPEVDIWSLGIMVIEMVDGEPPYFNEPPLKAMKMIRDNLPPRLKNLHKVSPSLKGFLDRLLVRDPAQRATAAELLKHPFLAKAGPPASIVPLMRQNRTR
Outline: as §1

[10] = biological target: PLK1 (Homo sapiens, UniProt P53350); details: PLK1, 1 μM; read-out: % control
Outline: as §1

[11] = biological target: PRKCD (Homo sapiens, UniProt Q05655); details: read-out: % control
Sequence of PRKCD (Q05655 whole entry): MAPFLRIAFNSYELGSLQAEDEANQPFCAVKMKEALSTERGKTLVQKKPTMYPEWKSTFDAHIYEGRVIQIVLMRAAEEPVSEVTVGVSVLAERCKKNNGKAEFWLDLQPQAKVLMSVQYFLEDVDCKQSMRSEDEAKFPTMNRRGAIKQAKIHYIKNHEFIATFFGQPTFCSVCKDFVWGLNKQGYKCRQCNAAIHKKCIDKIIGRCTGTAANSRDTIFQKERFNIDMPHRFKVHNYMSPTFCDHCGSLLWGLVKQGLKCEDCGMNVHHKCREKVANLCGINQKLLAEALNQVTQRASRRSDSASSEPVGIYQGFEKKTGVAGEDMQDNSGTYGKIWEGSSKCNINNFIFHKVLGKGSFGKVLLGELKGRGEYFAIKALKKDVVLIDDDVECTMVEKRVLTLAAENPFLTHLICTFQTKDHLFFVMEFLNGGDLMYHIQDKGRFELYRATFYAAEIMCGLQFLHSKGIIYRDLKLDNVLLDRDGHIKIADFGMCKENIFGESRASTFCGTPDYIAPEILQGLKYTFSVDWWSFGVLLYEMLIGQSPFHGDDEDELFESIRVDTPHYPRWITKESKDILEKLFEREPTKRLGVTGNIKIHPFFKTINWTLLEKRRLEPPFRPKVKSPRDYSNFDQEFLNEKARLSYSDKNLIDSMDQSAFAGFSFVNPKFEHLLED
Outline: as §1

[12] = biological target: T6, TEC (Homo sapiens, UniProt P42680); details: read-out: % control
T6 sequence (P42680 1-631): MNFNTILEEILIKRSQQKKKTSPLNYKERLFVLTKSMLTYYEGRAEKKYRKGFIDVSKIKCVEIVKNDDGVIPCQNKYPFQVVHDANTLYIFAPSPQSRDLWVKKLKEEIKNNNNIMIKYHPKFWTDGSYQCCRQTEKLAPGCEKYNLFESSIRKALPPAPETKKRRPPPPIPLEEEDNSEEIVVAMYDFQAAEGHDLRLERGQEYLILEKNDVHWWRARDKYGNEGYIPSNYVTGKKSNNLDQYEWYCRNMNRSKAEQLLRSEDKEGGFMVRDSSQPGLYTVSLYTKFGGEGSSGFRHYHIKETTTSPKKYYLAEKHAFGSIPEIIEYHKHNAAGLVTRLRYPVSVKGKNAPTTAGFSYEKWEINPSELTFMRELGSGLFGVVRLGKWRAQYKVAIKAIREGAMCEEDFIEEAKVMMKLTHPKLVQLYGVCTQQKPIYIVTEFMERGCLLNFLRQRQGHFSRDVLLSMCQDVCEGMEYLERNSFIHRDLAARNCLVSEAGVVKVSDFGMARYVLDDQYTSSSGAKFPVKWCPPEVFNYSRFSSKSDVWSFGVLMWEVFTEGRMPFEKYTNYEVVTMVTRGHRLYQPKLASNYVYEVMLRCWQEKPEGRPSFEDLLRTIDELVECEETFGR
Outline: as §1

[13] = biological target: TGFBR2 (Homo sapiens, UniProt P37173); details: TGFBR2, 1 μM; read-out: % control
Sequence of TGFBR2 (P37173 23-567): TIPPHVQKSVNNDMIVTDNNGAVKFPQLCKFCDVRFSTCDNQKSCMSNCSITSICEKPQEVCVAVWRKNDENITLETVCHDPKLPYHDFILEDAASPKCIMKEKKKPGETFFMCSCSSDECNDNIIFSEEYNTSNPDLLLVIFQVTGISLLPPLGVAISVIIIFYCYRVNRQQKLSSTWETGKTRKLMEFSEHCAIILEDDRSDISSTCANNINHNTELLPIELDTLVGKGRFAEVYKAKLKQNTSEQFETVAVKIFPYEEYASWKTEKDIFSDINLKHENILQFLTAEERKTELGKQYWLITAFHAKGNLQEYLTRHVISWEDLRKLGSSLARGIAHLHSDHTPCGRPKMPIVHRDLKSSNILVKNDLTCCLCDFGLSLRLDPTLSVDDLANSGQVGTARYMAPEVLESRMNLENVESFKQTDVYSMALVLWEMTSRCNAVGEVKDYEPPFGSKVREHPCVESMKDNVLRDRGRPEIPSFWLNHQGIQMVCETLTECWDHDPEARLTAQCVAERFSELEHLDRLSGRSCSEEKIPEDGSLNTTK
Outline: as §1

SMILES	remaining binding at 1 µM [1]	remaining binding at 1 µM [2]	remaining binding at 1 µM [3]	remaining binding at 1 µM [4]	remaining binding at 1 µM [5]	remaining binding at 1 µM [6]	remaining binding at 1 µM [7]	remaining binding at 1 µM [8]	remaining binding at 1 µM [9]	remaining binding at 1 µM [10]	remaining binding at 1 µM [11]	remaining binding at 1 µM [12]	remaining binding at 1 µM [13]
CNc1c(-c2cnn([C@H]3CCN(C(C)=O)C[C@@H]3F)c2)cnc2[nH]cc(Cl)c12 [Compound 77, 1-((3S,4S)-4-(4-(3-chloro-4-(methylamino)-1H-pyrrolo[2,3-b]pyridin-5-yl)-1H-pyrazol-1-yl)-3-fluoropiperidin-1-yl)ethan-1-one]	54%	100%	92%	94%	51%	46%	88%	56%	65%	65%	100%	100%	100%
CNc1c(-c2ccc(C(=O)N3CCC(N4CCOCC4)CC3)cc2)cnc2[nH]cc(Cl)c12 [Compound 96, (4-(3-chloro-4-(methylamino)-1H-pyrrolo[2,3-b]pyridin-5-yl)phenyl)(4-morpholinopiperidin-1-yl)methanone]	63%	100%	77%	96%	75%	86%	91%	83%	31%	64%	94%	100%	100%
O=C(c1ccc(-c2cnc3[nH]cc(Cl)c3c2NC2CCCC2)cc1)N1CCC(N2CCOCC2)CC1 [Compound 101, (4-(3-chloro-4-(cyclopentylamino)-1H-pyrrolo[2,3-b]pyridin-5-yl)phenyl)(4-morpholinopiperidin-1-yl)methanone]	98%	96%	100%	87%	92%	95%	78%	30%	100%	98%	88%	93%	100%
